Laboratory results from patent publication US20240199623A1 (ILDONG PHARMACEUTICAL CO., LTD., priority 2020, published 2024).
Converted amounts (≈) assume the structure as drawn.

Assays:
[1] = Phosphate-buffered saline (PBS) solubility of compounds; type: physicochemical; settings: aqueous buffer, thermodynamic from solid, PBS pH 7.5, 0.5 mg/mL, vortexed 90 min, filtered, LC-MS/MS, read-out: Solubility Range
Experimental: PBS solutions (pH 7.5) were prepared according to the following compositions and stored at 4° C. Test compounds were dissolved in PBS (pH 7.5) at 0.5 mg/mL and vortexed for 90 min. The PBS solution was sequentially filtered through a 0.45, 1.2, […] syringe filter. Concentration of test compounds were determined using LC-MS/MS with appropriate dilution of the samples.

C57BL/6 female mice = test: Scopolamine induced tear volume reduction model; type: in vivo, mouse; settings: scopolamine-injected mice, ophthalmic solution topically on both eyes 3 times a day, phenol red thread; average if evaluated twice
Experimental: Seven-week old C57BL/6 female mice were used.
Scopolamine hydrobromide was purchased from Sigma Aldrich (Cat No. S0929), dissolved in saline, and sterilized prior to use.
Zone-Quick phenol red thread was obtained from Menicon.
The test compounds used in this experiment were dissolved in PBS containing 1% of surfactant.
Scopolamine (0.2 ml of 2.5 mg/mL solution) was injected subcutaneously 3 times a day to induce a decrease in the tear volume in the mouse. At the same time, the ophthalmic solution of test compounds or vehicle were topically administered onto both eyes 3 times a day. Tear volume was measured by phenol red thread before dosing (basal level) and 1 hour after the last administration of scopolamine and ophthalmic solution. The results were obtained by measuring the length of the phenol red thread turning red by tears. The schedule of study is expressed as FIG. 1.
If the test compound was evaluated twice, the average value was used.

human wild type-CFTR [2] = target: T1, human wild type-CFTR (Homo sapiens, UniProt P13569); test: Short-circuit current measurement; type: cell-based; set-up: expressed in transfected cells; settings: FRT cells expressing human wild type-CFTR; Forskolin 20 μM signal used as 100% activity; read-out: Short-circuit current measurement (EC50) Concentration range
Excerpt: Forskolin (Tocris cat. #1099), CFTRinh-172 (Tocris cat. #3430), amphotericin B (Tocris cat. #6930), dimethyl sulfoxide (Sigma cat. #D4540), EVC4000 Multi-Channel V/I Clamp (World Precision Instruments, Sarasota, FL), PowerLab 4/35 (AD Instruments, Castle Hill, Australia), Labchart Pro 7, GraphPad Prism 5 (GraphPad Software, Inc.). Fisher rat thyroid (FRT) cells expressing human wild type-CFTR were provided by Dr. Alan Verkman (University of California, San Francisco) and grown in DMEM/F12 medium (1:1) supplemented with 10% FBS, 2 mM glutamine, 100 units/ml penicillin and 100 μg/ml streptomycin. Snapwell inserts containing CF TR-expressing FRT cells were mounted in Ussing chambers (Physiologic Instruments, San Diego, CA). […] Forskolin, test compounds, and CFTRinh-172 were added to the apical and basolateral bath solution. Apical membrane current and short-circuit current were measured with an EVC4000 Multi-Channel V/I Clamp (World Precision Instruments, Sarasota, FL) and recorded using PowerLab 4/35 (AD Instruments, Castle Hill, Australia). Data were collected and analyzed with ADInstruments acquisition software Labchart Pro 7 software. The sampling rate was 4 Hz.

human wild type-CFTR [3] = target: T1, human wild type-CFTR; test: Cell-based YFP assay; set-up: expressed in transfected cells; host or cells: CHO-K1 (Chinese hamster ovary); settings: CHO-K1 cells expressing human wild type-CFTR and YFP-H148Q/I152L; forskolin 20 μM = 100% activity; read-out: Cell-based YFP Assay (EC50) Concentration Range
Procedure, shortened: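 CHO-K1 cells co-expressing human wild-type CFTR and YFP-H148Q/I152L halide sensor, grown 48 h at 37 °C, then in PBS. YFP quenching by I⁻ influx read at 37 °C after adding 140 mM I⁻ solution, sampled every 0.4 s for 14 s. Triplicates averaged; EC50 fitted.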

[4] = target: T2, Human recombinant PDE4A1A (Homo sapiens, UniProt P27815); test: Human phosphodiesterase 4 (PDE4) inhibition, PDE4A1A; type: biochemical; settings: read-out: % inhibition range at 10 uM PDE4A1A; 10 uM test compound
T2 construct: purchased BPS Bioscience; host or cells: insect Sf9 cells
Experimental: (§1) […] Human recombinant PDE4A1A, PDE4B 1, PDE4C1 and PDE4D2 are respectively expressed in each host cell (insect Sf9 cells, BPS Bioscience). Preincubation of 10 μM test compounds or vehicle was proceeded with 20 ng/ml PDE4A1A or 4 ng/ml PDE4B 1 or 8 ng/ml PDE4C1 or 5 ng/ml PDE4D2 enzyme in Tris-HCl buffer pH 7.2 for 15 minutes at 25° C. 100 nM fluorescein (FAM) labeled cAMP for another 30 minutes incubation period was added in order to initiate the enzymatic reaction and addition of IMAP binding solution was followed for its termination. Specifically, IMAP complexes with phosphate groups on nucleotide monophosphate generated from cyclic nucleotides through PDE activity. The amount of complex formed is determined by reading spectrofluorimetrical signal at 470 nm/525 nm.

[5] = target: T3, Human recombinant PDE4B 1 (Homo sapiens, UniProt Q07343); test: Human phosphodiesterase 4 (PDE4) inhibition, PDE4B 1; type: biochemical; settings: read-out: % inhibition range at 10 uM PDE4B1; 10 uM test compound
T3 construct: purchased BPS Bioscience; host or cells: insect Sf9 cells
Experimental: as §1

Human recombinant PDE4C1 = target: T4, Human recombinant PDE4C1 (Homo sapiens, UniProt Q08493); test: Human phosphodiesterase 4 (PDE4) inhibition, PDE4C1; type: biochemical; settings: read-out: % inhibition range at 10 uM PDE4C1; 10 uM test compound
T4 construct: purchased BPS Bioscience; host or cells: insect Sf9 cells
Experimental: as §1

Human recombinant PDE4D2 = target: T5, Human recombinant PDE4D2 (Homo sapiens, UniProt Q08499); test: Human phosphodiesterase 4 (PDE4) inhibition, PDE4D2; type: biochemical; settings: read-out: % inhibition range at 10 uM PDE4D2; 10 uM test compound
T5 construct: purchased BPS Bioscience; host or cells: insect Sf9 cells
Experimental: as §1

T1 sequence (P13569 whole entry): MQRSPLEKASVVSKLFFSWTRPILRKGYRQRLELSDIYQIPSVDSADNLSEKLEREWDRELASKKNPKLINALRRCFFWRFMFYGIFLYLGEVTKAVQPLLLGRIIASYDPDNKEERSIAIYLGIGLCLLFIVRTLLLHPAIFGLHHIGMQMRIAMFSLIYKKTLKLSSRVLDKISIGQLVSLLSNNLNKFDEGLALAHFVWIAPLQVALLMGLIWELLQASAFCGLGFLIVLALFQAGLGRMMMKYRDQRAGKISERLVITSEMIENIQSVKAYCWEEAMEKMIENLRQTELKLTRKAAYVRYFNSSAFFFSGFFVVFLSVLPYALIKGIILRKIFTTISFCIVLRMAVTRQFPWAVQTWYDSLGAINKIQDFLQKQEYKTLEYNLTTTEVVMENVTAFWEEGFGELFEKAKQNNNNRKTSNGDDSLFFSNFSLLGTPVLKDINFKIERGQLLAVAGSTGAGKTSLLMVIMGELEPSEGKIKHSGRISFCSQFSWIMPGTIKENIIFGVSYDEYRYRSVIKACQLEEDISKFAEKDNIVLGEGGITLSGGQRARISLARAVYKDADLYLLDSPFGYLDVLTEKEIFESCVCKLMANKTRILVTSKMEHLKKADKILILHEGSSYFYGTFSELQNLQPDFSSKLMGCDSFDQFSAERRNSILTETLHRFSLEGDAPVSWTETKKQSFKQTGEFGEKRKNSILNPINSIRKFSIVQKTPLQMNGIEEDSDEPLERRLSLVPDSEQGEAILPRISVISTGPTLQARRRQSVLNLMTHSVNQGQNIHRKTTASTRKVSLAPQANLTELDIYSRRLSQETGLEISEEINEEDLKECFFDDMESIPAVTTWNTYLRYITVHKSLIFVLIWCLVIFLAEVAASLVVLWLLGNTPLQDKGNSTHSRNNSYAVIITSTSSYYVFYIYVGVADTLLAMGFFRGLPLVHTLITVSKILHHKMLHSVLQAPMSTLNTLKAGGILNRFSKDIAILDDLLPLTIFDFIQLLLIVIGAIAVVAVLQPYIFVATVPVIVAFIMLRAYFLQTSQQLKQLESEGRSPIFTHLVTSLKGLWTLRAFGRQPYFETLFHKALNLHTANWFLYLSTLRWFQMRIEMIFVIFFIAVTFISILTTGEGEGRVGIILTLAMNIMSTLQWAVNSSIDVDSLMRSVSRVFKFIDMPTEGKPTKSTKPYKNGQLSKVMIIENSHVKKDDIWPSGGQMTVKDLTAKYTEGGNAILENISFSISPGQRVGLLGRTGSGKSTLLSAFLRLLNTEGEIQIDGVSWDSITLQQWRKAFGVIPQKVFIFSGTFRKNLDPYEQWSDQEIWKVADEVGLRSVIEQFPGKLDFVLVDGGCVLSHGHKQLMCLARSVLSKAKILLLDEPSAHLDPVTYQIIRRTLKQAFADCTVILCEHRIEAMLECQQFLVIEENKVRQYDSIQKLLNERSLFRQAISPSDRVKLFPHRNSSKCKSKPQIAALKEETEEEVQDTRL
T4 sequence (Q08493 whole entry): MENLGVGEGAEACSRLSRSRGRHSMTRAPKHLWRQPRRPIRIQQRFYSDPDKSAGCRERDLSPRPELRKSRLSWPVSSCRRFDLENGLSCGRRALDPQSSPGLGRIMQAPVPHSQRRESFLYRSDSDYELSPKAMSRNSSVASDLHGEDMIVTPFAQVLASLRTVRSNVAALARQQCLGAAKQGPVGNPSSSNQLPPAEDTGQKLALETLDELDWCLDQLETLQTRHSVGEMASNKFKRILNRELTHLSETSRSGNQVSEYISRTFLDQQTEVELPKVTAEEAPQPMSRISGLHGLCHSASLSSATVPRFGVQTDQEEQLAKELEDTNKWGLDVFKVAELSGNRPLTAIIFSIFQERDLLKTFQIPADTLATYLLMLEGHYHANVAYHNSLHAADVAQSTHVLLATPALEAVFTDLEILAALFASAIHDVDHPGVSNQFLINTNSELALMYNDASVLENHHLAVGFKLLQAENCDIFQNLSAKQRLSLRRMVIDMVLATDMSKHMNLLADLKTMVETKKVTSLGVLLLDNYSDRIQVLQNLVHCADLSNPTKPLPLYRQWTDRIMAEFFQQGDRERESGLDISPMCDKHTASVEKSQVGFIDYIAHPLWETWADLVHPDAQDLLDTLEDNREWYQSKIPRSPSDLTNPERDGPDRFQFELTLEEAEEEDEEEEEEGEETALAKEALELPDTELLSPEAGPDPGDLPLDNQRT
T3 sequence (Q07343 whole entry): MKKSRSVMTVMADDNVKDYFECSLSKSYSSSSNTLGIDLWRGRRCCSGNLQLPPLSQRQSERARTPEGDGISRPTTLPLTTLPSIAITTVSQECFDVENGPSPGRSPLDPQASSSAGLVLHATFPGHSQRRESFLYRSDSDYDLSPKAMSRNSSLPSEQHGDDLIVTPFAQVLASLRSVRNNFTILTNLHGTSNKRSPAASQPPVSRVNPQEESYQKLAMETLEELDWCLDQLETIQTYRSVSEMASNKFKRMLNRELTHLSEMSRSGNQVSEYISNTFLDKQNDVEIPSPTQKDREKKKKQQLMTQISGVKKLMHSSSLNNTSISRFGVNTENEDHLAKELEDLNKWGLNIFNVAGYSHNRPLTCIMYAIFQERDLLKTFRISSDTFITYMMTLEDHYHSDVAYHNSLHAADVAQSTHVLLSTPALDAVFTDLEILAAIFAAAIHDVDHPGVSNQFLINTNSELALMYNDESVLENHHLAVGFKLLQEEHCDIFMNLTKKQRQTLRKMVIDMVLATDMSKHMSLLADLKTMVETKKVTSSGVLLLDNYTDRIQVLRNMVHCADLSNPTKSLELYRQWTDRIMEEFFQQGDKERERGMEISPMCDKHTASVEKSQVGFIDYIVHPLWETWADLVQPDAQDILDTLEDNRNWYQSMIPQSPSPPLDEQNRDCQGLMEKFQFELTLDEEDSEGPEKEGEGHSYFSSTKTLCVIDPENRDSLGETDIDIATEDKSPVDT
T5 sequence (Q08499 303-809 limits assumed): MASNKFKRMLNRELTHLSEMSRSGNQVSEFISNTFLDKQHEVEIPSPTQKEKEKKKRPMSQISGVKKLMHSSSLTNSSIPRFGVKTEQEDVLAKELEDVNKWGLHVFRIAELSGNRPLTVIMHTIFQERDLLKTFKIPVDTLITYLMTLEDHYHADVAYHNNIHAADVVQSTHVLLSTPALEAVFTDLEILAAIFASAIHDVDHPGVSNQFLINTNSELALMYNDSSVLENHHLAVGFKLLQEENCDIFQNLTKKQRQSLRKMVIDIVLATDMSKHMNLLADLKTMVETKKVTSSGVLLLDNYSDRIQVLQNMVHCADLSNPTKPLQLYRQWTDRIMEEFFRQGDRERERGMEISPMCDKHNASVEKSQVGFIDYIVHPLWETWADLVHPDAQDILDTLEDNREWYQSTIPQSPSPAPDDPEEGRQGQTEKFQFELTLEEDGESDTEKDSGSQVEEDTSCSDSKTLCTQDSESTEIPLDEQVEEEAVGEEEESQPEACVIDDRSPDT
T2 sequence (P27815 1-647 isoform P27815-4): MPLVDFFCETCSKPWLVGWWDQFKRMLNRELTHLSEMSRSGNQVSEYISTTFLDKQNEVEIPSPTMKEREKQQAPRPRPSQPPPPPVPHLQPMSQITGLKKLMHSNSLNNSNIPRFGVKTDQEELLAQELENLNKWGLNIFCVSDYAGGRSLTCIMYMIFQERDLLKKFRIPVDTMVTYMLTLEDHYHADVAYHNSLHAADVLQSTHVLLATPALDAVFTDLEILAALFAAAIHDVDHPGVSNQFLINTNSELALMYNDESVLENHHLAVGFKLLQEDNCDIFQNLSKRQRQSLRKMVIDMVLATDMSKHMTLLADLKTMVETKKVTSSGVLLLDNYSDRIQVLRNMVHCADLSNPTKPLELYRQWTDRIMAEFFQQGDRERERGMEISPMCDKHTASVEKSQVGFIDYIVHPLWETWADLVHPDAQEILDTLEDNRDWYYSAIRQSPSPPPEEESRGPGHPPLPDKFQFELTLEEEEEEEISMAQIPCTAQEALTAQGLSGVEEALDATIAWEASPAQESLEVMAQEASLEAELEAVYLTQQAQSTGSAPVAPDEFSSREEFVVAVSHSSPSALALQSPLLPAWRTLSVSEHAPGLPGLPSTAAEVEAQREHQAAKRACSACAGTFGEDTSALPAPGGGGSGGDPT

COC(=O)c1ccc(NC(=O)c2cc3nccc(-c4ccc(OC)c(OC)c4)n3n2)cc1Cl [Compound 140, methyl 2-chloro-4-(7-(3,4-dimethoxyphenyl)pyrazolo[1,5-a]pyrimidine-2-carboxamido)benzoate]
solubility at 90 min [1]: < 0.1 µg/mL | Ratio of tear volume (test compound to vehicle) (C57BL/6 female mice): 1.48 | EC50 (human wild type-CFTR [2]): < 0.2 µM | EC50 (human wild type-CFTR [3]): < 0.2 µM

COC(=O)c1ccc(NC(=O)c2cc3nccc(-c4ccc(OC)c(OC)c4)n3n2)cc1F [Compound 141, methyl 4-(7-(3,4-dimethoxyphenyl)pyrazolo [1,5-a]pyrimidine-2-carboxamido)-2-fluorobenzoate]
solubility at 90 min [1]: < 0.1 µg/mL | Ratio of tear volume (test compound to vehicle) (C57BL/6 female mice): 1.34 | EC50 (human wild type-CFTR [2]): < 0.2 µM | EC50 (human wild type-CFTR [3]): < 0.2 µM

COc1ccc(-c2ccnc3cc(C(=O)NC45CCC(C(=O)O)(CC4)CC5)nn23)cc1OC [Compound 149, 4-(7-(3,4-dimethoxyphenyl)pyrazolo[1,5-a]pyrimidine-2-carboxamido)bicyclo[2.2.2]octane-1-carboxylic acid]
solubility at 90 min [1]: > 10 µg/mL | Ratio of tear volume (test compound to vehicle) (C57BL/6 female mice): 1.26 | EC50 (human wild type-CFTR [2]): ≥ 2 µM | EC50 (human wild type-CFTR [3]): 0.2 to 2 µM

COc1ccc(-c2ccnc3cc(C(=O)Nc4ccc(C(=O)N5CCN(C)CC5)cc4F)nn23)cc1OC [Compound 158, 7-(3,4-dimethoxyphenyl)-N-(2-fluoro-4-(4-methylpiperazine-1-carbonyl)phenyl)pyrazolo[1,5-a]pyrimidine-2-carboxamide]
solubility at 90 min [1]: < 0.1 µg/mL | Ratio of tear volume (test compound to vehicle) (C57BL/6 female mice): 1.40 | EC50 (human wild type-CFTR [2]): < 0.2 µM | EC50 (human wild type-CFTR [3]): < 0.2 µM

COc1ccc(-c2ccnc3cc(C(=O)Nc4ccc(C(=O)N5CCN(C(C)C)CC5)cc4)nn23)cc1OC [Compound 159, 7-(3,4-dimethoxyphenyl)-N-(4-(4-isopropylpiperazine-1-carbonyl)phenyl)pyrazolo[1,5-a]pyrimidine-2-carboxamide]
solubility at 90 min [1]: 0.1 to 10 µg/mL (≈ 0.189 to 18.9 µM) | Ratio of tear volume (test compound to vehicle) (C57BL/6 female mice): 2.11 | EC50 (human wild type-CFTR [2]): 0.2 to 2 µM | EC50 (human wild type-CFTR [3]): 0.2 to 2 µM

COc1ccc(-c2ccnc3cc(C(=O)NC45CCC(C(=O)N6CCOCC6)(CC4)CC5)nn23)cc1OC [Compound 186, 7-(3,4-dimethoxyphenyl)-N-(4-(morpholine-4-carbonyl)bicyclo[2.2.2]octan-1-yl)pyrazolo[1,5-a] pyrimidine-2-carboxamide]
solubility at 90 min [1]: > 10 µg/mL | Ratio of tear volume (test compound to vehicle) (C57BL/6 female mice): 1.05 | EC50 (human wild type-CFTR [2]): 0.2 to 2 µM | EC50 (human wild type-CFTR [3]): < 0.2 µM

COC(=O)c1ccc(NC(=O)c2cc3nccc(-c4ccc(OC)c(OC)c4)n3n2)cc1OC [Compound 192, methyl 4-(7-(3,4-dimethoxyphenyl)pyrazolo [1,5-a]pyrimidine-2-carboxamido)-2-methoxybenzoate]
inhibition at 10 µM [4]: > 80% | inhibition at 10 µM [5]: > 80% | inhibition at 10 µM (Human recombinant PDE4C1): > 80% | inhibition at 10 µM (Human recombinant PDE4D2): > 80% | EC50 (human wild type-CFTR [3]): < 0.2 µM

COc1ccc(-c2ccnc3cc(C(=O)Nc4ccc(N5CCOCC5)cc4)nn23)cc1OC [Compound 194, 7-(3,4-dimethoxyphenyl)-N-(4-morpholinophenyl)pyrazolo [1,5-a]pyrimidine-2-carboxamide]
inhibition at 10 µM [4]: > 80% | inhibition at 10 µM [5]: > 80% | inhibition at 10 µM (Human recombinant PDE4C1): > 80% | inhibition at 10 µM (Human recombinant PDE4D2): > 80% | EC50 (human wild type-CFTR [3]): < 0.2 µM

COc1ccc(-c2ccnc3cc(C(=O)N4CCN(Cc5c(F)cccc5F)CC4)nn23)cc1OC [Compound 212, (4-(2,6-difluorobenzyl)piperazin-1-yl)(7-(3,4-dimethoxyphenyl)pyrazolo [1,5-a]pyrimidin-2-yl)methanone]
solubility at 90 min [1]: 0.1 to 10 µg/mL (≈ 0.203 to 20.3 µM) | Ratio of tear volume (test compound to vehicle) (C57BL/6 female mice): 1.43 | EC50 (human wild type-CFTR [2]): ≥ 2 µM | EC50 (human wild type-CFTR [3]): < 0.2 µM

COC(=O)c1ccc(NC(=O)c2cc3ncc(-c4ccc(OC)c(OC)c4)cn3n2)cc1 [Compound 239, methyl 4-(6-(3,4-dimethoxyphenyl)pyrazolo[1,5-a]pyrimidine-2-carboxamido)benzoate]
inhibition at 10 µM [4]: < 50% | inhibition at 10 µM [5]: < 50% | inhibition at 10 µM (Human recombinant PDE4C1): < 50% | inhibition at 10 µM (Human recombinant PDE4D2): < 50% | EC50 (human wild type-CFTR [3]): ≥ 2 µM

COc1ccc(-c2ccnc3cc(C(=O)N4CCN(C(=O)c5c(F)c(F)c(F)c(F)c5F)[C@@H](C)C4)nn23)cc1OC [Compound 259, (S)-(7-(3,4-dimethoxyphenyl)pyrazolo[1,5-a]pyrimidin-2-yl) (3-methyl-4-(perfluorobenzoyl)piperazin-1-yl)methanone]
solubility at 90 min [1]: 0.1 to 10 µg/mL (≈ 0.174 to 17.4 µM) | Ratio of tear volume (test compound to vehicle) (C57BL/6 female mice): 0.94 | EC50 (human wild type-CFTR [2]): 0.2 to 2 µM | EC50 (human wild type-CFTR [3]): 0.2 to 2 µM

COc1ccc(-c2ccnc3cc(C(=O)Nc4ccc(N5CCN(C(=O)OC(C)(C)C)CC5)cc4)nn23)cc1OC [Compound 271, tert-butyl 4-(4-(7-(3,4-dimethoxyphenyl)pyrazolo [1,5-a]pyrimidine-2-carboxamido)phenyl) piperazine-1-carboxylate]
solubility at 90 min [1]: < 0.1 µg/mL | Ratio of tear volume (test compound to vehicle) (C57BL/6 female mice): 1.17 | EC50 (human wild type-CFTR [2]): < 0.2 µM | EC50 (human wild type-CFTR [3]): < 0.2 µM

COc1ccc(-c2ccnc3cc(C(=O)Nc4ccc(N5CCC6(CC5)OCCO6)cc4)nn23)cc1OC [Compound 274, N-(4-(1,4-dioxa-8-azaspiro[4.5]decan-8-yl)phenyl)-7-(3,4-dimethoxyphenyl)pyrazolo [1,5-a]pyrimidine-2-carboxamide]
solubility at 90 min [1]: < 0.1 µg/mL | Ratio of tear volume (test compound to vehicle) (C57BL/6 female mice): 1.07 | EC50 (human wild type-CFTR [2]): < 0.2 µM | EC50 (human wild type-CFTR [3]): < 0.2 µM

COc1ccc(-c2ccnc3cc(C(=O)Nc4ccc(NC(=O)CNC(=O)OC(C)(C)C)cc4)nn23)cc1OC [Compound 280, tert-butyl (2-((4-(7-(3,4-dimethoxyphenyl)pyrazolo [1,5-a]pyrimidine-2-carboxamido)phenyl)amino)-2-oxoethyl)carbamate]
solubility at 90 min [1]: < 0.1 µg/mL | Ratio of tear volume (test compound to vehicle) (C57BL/6 female mice): 1.32 | EC50 (human wild type-CFTR [2]): < 0.2 µM | EC50 (human wild type-CFTR [3]): < 0.2 µM

CCOc1ccc(C(=O)Nc2cc3nccc(-c4ccc(OC)c(OC)c4)n3n2)cc1 [Compound 287, N-(7-(3,4-dimethoxyphenyl)pyrazolo[1,5-a]pyrimidin-2-yl)-4-ethoxybenzamide]
inhibition at 10 µM [4]: 50 to 80% | inhibition at 10 µM [5]: 50 to 80% | inhibition at 10 µM (Human recombinant PDE4C1): < 50% | inhibition at 10 µM (Human recombinant PDE4D2): 50 to 80% | EC50 (human wild type-CFTR [3]): 0.2 to 2 µM

CCOc1ccc(NC(=O)c2cc3nccc(-c4ccc(OC)nc4)n3n2)cc1 [Compound 323, N-(4-ethoxyphenyl)-7-(6-methoxypyridin-3-yl) pyrazolo[1,5-a]pyrimidine-2-carboxamide]
inhibition at 10 µM [4]: < 50% | inhibition at 10 µM [5]: 50 to 80% | inhibition at 10 µM (Human recombinant PDE4C1): < 50% | inhibition at 10 µM (Human recombinant PDE4D2): < 50% | EC50 (human wild type-CFTR [3]): ≥ 2 µM
